# Results: patent US20230218714A1, “DIAGNOSTICS AND USE OF QUORUM SENSING MOLECULES IN MUSCLE WASTING” (Universiteit Gent, priority 2019, published 2023)
# “Also recorded” adds a separate entry of the source. Where no end group is shown, it is not given here.
# What was measured:
# C2C12 myoblasts [1] = test: MTT cell viability assay in C2C12 myoblasts; conditions: for Effect: viability (hit direction): screening at 1 μM, hit selection by MAD/quartile/SSMD/robust SSMD
# Experimental: The mouse myoblast C2C12 cell line (ATCC, CRL-1772) was cultured at 37° C. in a 5% CO2 humidified incubator in Dulbecco's modified Eagle medium (DMEM; Thermo Fisher Scientific). For C2C12 cell proliferation, the medium was supplemented with 10% fetal bovine serum (FBS; Thermo Fisher Scientific), 100 units/ml penicillin, and 100 μg/ml streptomycin (1% Pen/Strep; Thermo Fisher Scientific). The proliferation medium was renewed each 2-3 days and confluency was kept below 80%. For differentiation of the C2C12 myoblasts into myotubes, proliferation medium was replaced by differentiation medium when cells reached 80% confluency.
# Viability of QSM was assessed using the 3-(4,5-dimethylthiazol-2-yl)-2,5-diphenyltetrazolium bromide (MTT) assay. Briefly, C2C12 myoblasts were seeded in a 96-well plate (3×10^4 cells/well). 24 hours post-seeding, the wells were treated with QSM (1 μM), placebo or positive control (DMSO 2%) and incubated for 24 hours at 37° C. Next, 20 μL of MTT reagent (5 mg/mL; Sigma-Aldrich) was added to each well and the plates were returned to the incubator for 2.5 hours. After incubation, supernatant was removed from the wells and 150 μL of DMSO was added to release and dissolve the formazan crystals. Absorbance was measured at 570 nm using a microplate reader (Thermo Fisher).
# The MTT assay is a widely validated and accepted viability assay for screening experiments. In this assay, the reduction of MTT into formazan, catalysed by living cell enzymes, is used as a marker of cell viability. If QSM are cytotoxic or cytostatic towards C2C12 cells, a decrease in MTT reduction is expected (viability less than 100%), while an increased C2C12 proliferation caused by QSM will result in an increased MTT reduction (viability more than 100%).
# In a further set of experiments, the dose response effect of QSPs Q22 and Q184 was assessed on MTT reduction of C2C12 myotubes (tables 7.4 and 7.5).
# [2] = system: GDF15 production by C2C12 myotubes; test: GDF15 production by C2C12 myotubes (sandwich ELISA), mitochondrial changes; assay type: cell-based, mouse; conditions: for GDF15 secretion, effect relative to median: QSM 1 μM, C2C12 myotubes; for Effect: GDF15 (hit direction): screening at 1 μM
# Experimental: GDF15 levels were determined in the supernatants of C2C12 cells after QSM, placebo or positive control (oligomyin) treatment, using a sandwich ELISA (R&D Systems). A similar protocol as described for the IL-6 determination was used.
# GDF15 is considered a useful biomarker for direct or indirect changes in mitochondrial function. Moreover, GDF15 is implicated in muscle wasting diseases like sarcopenia, chronic obstructive pulmonary disease cachexia and critical illness.
# C2C12 myoblasts [3] = test: Differentiation of C2C12 myoblasts into myotubes (LADD stain, ImageJ); assay type: cell-based, mouse; conditions: for differentiation capacity relative to the median of all samples: QSM 1 μM at d0 and d3, myotube formation at d6; for Effect: differentiation (hit direction): screening at 1 μM, myotube formation
# Experimental: Differentiation medium consisted of DMEM supplemented with 2% horse serum (HS; Thermo Fisher Scientific) and 1% Pen/Strep. All experiments were done with C2C12 passage numbers below 30.
# C2C12 myoblasts (1×10^4 cells/well) were seeded in 48-well plates and incubated until they reached 80% confluency, after which the proliferation medium was removed and replaced by differentiation medium (d0). The differentiation medium was renewed at d3. QSM (1 μM), placebo or positive controls (vitamin D3) were added to the cells together with the differentiation medium at d0 and d3. After 6 days of incubation (d6), myotubes were stained with the combined nuclear and cytoplasmatic LADD Multiple Stain (as described in R. McColl, M. Nkosi, C. Snyman, C. Niesler, Analysis and quantification of in vitro myoblast fusion using the LADD Multiple Stain, Biotechniques 61(6) (2016) 323-326). LADD Multiple Stain is a solution containing toluidine blue (VWR) and basic fuchsin (Fluka) in 30% (v/v) ethanol. The stained myotubes were assessed under a phase-contrast microscope equipped with a camera (Olympus CKX53) at a total magnification of 100×. Five different images were taken per well. The amount of myotube formation was automatically quantified using ImageJ software.
# Mimicking the in vivo muscle physiology, C2C12 myoblasts are able to differentiate into myotubes when they are adjacent to each other and a differentiating extracellular medium is present. Muscle wasting diseases are characterized by a decreased myotube formation. To evaluate the effects of QSM on the differentiation capacities of C2C12 myoblasts, the C2C12 cells were treated in differentiation medium with QSM at d0 and d3, and evaluated the myotube formation at d6. At d6, the staining protocol of McColl et al. was used to visualize the myotubes (references see above). The differentiation capacity of all QSM was between 71% (Q013) and 145% (AI-2) relative to the median of all samples (FIG. 1).
# C. elegans = C. elegans swimming behaviour (muscle wasting/aging model); assay type: in vivo; set-up: key to Wave initiation rate / Asymmetry / Stretch / Curling / Travel speed / Brush stroke / Activity index: relative to placebo set to 1.0; conditions: DMSO positive control
# From the text: The C. elegans model is a well-established aging model: they diminish in locomotory vigor as they age, a phenomenon that is attributed to a physical deterioration of muscle and synapses. QSPs were introduced in the medium of living C. elegans. As comparisons, a placebo experiment was used as negative control, while DMSO was used as positive control.
# Using automatic, objective imaging software, different swimming behaviour variables associated with this decrease in locomotory vigor or muscle wasting were investigated. Wave initiation rate, travel speed, brush stroke and activity index do decrease with muscle wasting, while body wave number, asymmetry, curling and stretch do increase with muscle wasting, as described in Restif et al., Plos Computational Biology, 2014.
# More in particular, the results in these tables show Q184-associated changes in three swimming parameters in wild-type adults at day 3 (Table 9) and day 12 (Table 10) (n=120-170 from 3 independent trials for each condition). Data presented are means±s.e.m (placebo set to 1.0).
# [4] = system: IL-6 production by C2C12 myotubes; test: IL-6 production by C2C12 myotubes (sandwich ELISA); assay type: cell-based, mouse; conditions: for Effect: inflammation (IL-6 production, hit direction): screening at 1 μM
# Experimental: C2C12 myoblasts (2.5×10^4 cells/well) were seeded in 96-well plates and incubated until they reached 80% confluency, after which the proliferation medium was removed and replaced by differentiation medium. After 6 days of incubation with daily renewed differentiation medium, the cells were treated with 1 μM of QSM, placebo or positive control (LPS) for 24 hours. IL-6 levels were determined in the supernatants using a sandwich ELISA (eBioscience), using IL-6 capture antibody, blocking solution, samples and standards, IL-6 detection antibody, avidin-horseradish peroxidase and substrate solution which were added sequentially, with washing steps in between. After stopping the reaction with H2SO4 solution, the absorbance was measured at 450 nm and 570 nm (correction wavelength) using a microplate reader (ThermoLab Systems). Concentrations were determined using the standard curves generated with known concentrations of IL-6.
# Several pro-inflammatory cytokines are elevated in sepsis, cancer, ageing and other catabolic diseases. They are thought to trigger muscle wasting (partly) through NF-kB pathways. […] In these screening experiments, the effects of QSM on myotube IL-6 production were assessed using a sandwich ELISA.
# In a further set of experiments, using similar methods as described for the screening experiments, a number of QSPs were tested for a dose response relation in C2C12 cells.
# C2C12 cells = test: Co-treatment of C2C12 cells with QSP and ala-scan derivative, IL-6 response; assay type: cell-based, mouse; conditions: for effect on Q055 mediated IL-6 induction: Q055 75 μM plus derivative 90 μM
# From the text: Means±SEM, n=6. * P<0.05; ** P<0.01, *** P<0.001; paired Student's t test.
# human muscle cells = test: IL-6 production dose response in human muscle cells; assay type: cell-based; conditions: FIG. 12
# Experimental: Differentiation medium consisted of high glucose Glutamax DMEM supplemented with penicillin (100 units/ml), streptomycin (100 μg/ml) and insulin (10 μg/mL).
# Using similar methods as described for the C2C12 experiments, a number of QSPs were tested for a dose response relation in human muscle cells.
# [5] = day 3, placebo set to 1.0, Q184 at 1 μM
# [6] = day 12, placebo set to 1.0, Q184 at 1 μM
compound,measurement,setting,value
CCCC(O)CC(=O)N[C@H]1CCOC1=O (stereo partly shown) [3-OH-C6-HSL],Effect: viability (hit direction),C2C12 myoblasts [1],increasing hit; also recorded: ↑ viability
C[C@]12OC[C@H](O)[C@@]1(O)O[B-](O)(O)O2 [AI-2],Effect: viability (hit direction),C2C12 myoblasts [1],increasing both C2C12 viability and GDF15 production
same,"GDF15 secretion, effect relative to median",[2],216%
same,Effect: GDF15 (hit direction),[2],increased GDF15 production
same,differentiation capacity relative to the median of all samples,C2C12 myoblasts [3],145%
same,Effect: differentiation (hit direction),C2C12 myoblasts [3],increased myotube formation; also recorded: ↑ differentiation
CCCCCC(=O)N[C@H]1CCOC1=O [C6-HSL],Effect: GDF15 (hit direction),[2],increased GDF15 production
"C[S+](C)[O-] [DMSO, dimethylsulfoxide, reference compound]",Activity index,C. elegans; [5],0.60
same,Asymmetry,C. elegans; [5],3.11
same,Body wave number,C. elegans; [5],2.04
same,Brush stroke,C. elegans; [5],0.68
same,Curling,C. elegans; [5],1.55
same,Stretch,C. elegans; [5],1.10
same,Travel speed,C. elegans; [5],0.85
same,Wave initiation rate,C. elegans; [5],0.58
same,Activity index,C. elegans; [6],0.31
same,Asymmetry,C. elegans; [6],2.50
same,Body wave number,C. elegans; [6],2.59
same,Brush stroke,C. elegans; [6],0.48
same,Curling,C. elegans; [6],0.08
same,Stretch,C. elegans; [6],0.91
same,Travel speed,C. elegans; [6],0.49
same,Wave initiation rate,C. elegans; [6],0.39
AGTKPQGKPASNLVECVFSLFKKCN [Q011],Effect: viability (hit direction),C2C12 myoblasts [1],decreasing viability hits
same,Effect: GDF15 (hit direction),[2],increased GDF15 production
AIFILAS [Q013],differentiation capacity relative to the median of all samples,C2C12 myoblasts [3],71%
AKDEH [Q015],Effect: viability (hit direction),C2C12 myoblasts [1],decreasing viability hits
same,Effect: GDF15 (hit direction),[2],increased GDF15 production
ALILTLVS [Q017],Effect: viability (hit direction),C2C12 myoblasts [1],decreasing viability hits
ARNQT [Q018],Effect: viability (hit direction),C2C12 myoblasts [1],decreasing viability hits
DLRGVPNPWGWIFGR [Q030],Effect: viability (hit direction),C2C12 myoblasts [1],decreasing viability hits
DLRNIFLKIKFKKK [Q031],Effect: viability (hit direction),C2C12 myoblasts [1],decreasing viability hits
DSVCASYF [Q040],Effect: viability (hit direction),C2C12 myoblasts [1],decreasing viability hits
ERPVG [Q052],Effect: viability (hit direction),C2C12 myoblasts [1],increasing hits; also recorded: increasing viability hit
same,"Effect: inflammation (IL-6 production, hit direction)",[4],decreased the IL-6 production; also recorded: ↓ inflammation
ESRLPKIRFDFIFPRKK [Q054],relative IL-6 production,"[4]; QSM 1 μM, 24 h, relative to median of all QSM",51%
same,"Effect: inflammation (IL-6 production, hit direction)",[4],decreased the IL-6 production; also recorded: ↓ inflammation
ESRVSRIIADFLFQRKK (Synthetic QSP055-A9),effect on Q055 mediated IL-6 induction,C2C12 cells,antagonistic effect
ESRVSRIILDFLFQRKK [Q055],"dose response relation, IL6 production",human muscle cells,Typical curves were obtained
same,Relative IL-6,[4]; concentration 0.20 μM,0.94
same,Relative IL-6,[4]; concentration 0.39 μM,1.07
same,Relative IL-6,[4]; concentration 1.56 μM,0.93
same,Relative IL-6,[4]; concentration 3.13 μM,1.24
same,Relative IL-6,[4]; concentration 6.25 μM,1.24
same,Relative IL-6,[4]; concentration 12.5 μM,3.60
same,Relative IL-6,[4]; concentration 25 μM,5.56
same,Relative IL-6,[4]; concentration 50 μM,8.94
same,Relative IL-6,[4]; concentration 100 μM,6.48
same,"Effect: inflammation (IL-6 production, hit direction)",[4],increased IL-6 production; also recorded: ↑ inflammation
FLVMFLSG [Q093],"GDF15 secretion, effect relative to median",[2],137%
same,Effect: GDF15 (hit direction),[2],increased GDF15 production
GKAEF [Q099],"GDF15 secretion, effect relative to median",[2],80%
same,Effect: GDF15 (hit direction),[2],decreased the GDF15 production
GLWEDILYSLNIIKHNNTKGLHHPIQL [Q101],Effect: viability (hit direction),C2C12 myoblasts [1],increasing hits; also recorded: ↑ viability
GSLSTFFALFNRSFTQALGK (Synthetic Q176-A9),effect on Q176 mediated IL-6 induction,C2C12 cells; Q176 50 μM plus derivative 60 μM,inhibiting the Q176 mediated IL-6 induction
LFSLVLAG [Q132],Effect: viability (hit direction),C2C12 myoblasts [1],decreasing viability hits
LPFEF [Q134],Effect: viability (hit direction),C2C12 myoblasts [1],decreasing viability hits
MAGNSSNFIHKIKQIFTHR [Q138],Effect: viability (hit direction),C2C12 myoblasts [1],increasing hits; also recorded: ↑ viability
MKAEH [Q140],Effect: viability (hit direction),C2C12 myoblasts [1],increasing hits; also recorded: ↑ viability
NNWNN [Q019],Effect: differentiation (hit direction),C2C12 myoblasts [3],increased myotube formation; also recorded: ↑ differentiation
QNSPNIFGQWM [Q097],Effect: viability (hit direction),C2C12 myoblasts [1],decreasing viability hits
SDLPFEH [Q164],Effect: viability (hit direction),C2C12 myoblasts [1],increasing hits; also recorded: ↑ viability
"SRNAT [Q192, SRNAT]",viability relative to the median of all samples (MTT),"C2C12 myoblasts [1]; QSM 1 μM, 24 h, C2C12 myoblasts, n=2",120%
same,Effect: viability (hit direction),C2C12 myoblasts [1],strong increasing hit; also recorded: ↑ viability
SRVSAIILDFLFQRKK (Synthetic Q055-A6),effect on Q055 mediated IL-6 induction,C2C12 cells,inhibited the Q055 mediated IL-6 induction
YSPWTNF [Q007],"Effect: inflammation (IL-6 production, hit direction)",[4],increased IL-6 production; also recorded: ↑ inflammation
YSTCDFIM [Q148],"GDF15 secretion, effect relative to median",[2],80%
